Assay results from patent US20100105103A1, “ALCOHOL TOLERANT ESCHERICHIA COLI AND METHODS OF PREPARATION THEREOF” (NATIONAL TAIWAN UNIVERSITY, priority 2008, published 2010).

What was measured:
[1] = test system: E. coli JH017 (potG- mutant overexpressing YqhD); assay: Growth curve of JH017 strain with various concentrations of alcohols (OD595); format: cell-based, Escherichia coli
Procedure: (§1) After 2 h of induction, the cultures were diluted to 0.35 OD595 in a fresh LB medium supplemented with kanamycin and 50 μg/ml of chloraphenicol, with the addition of 0-18% ethanol, 0-5% 1-propanol, 0-5% iso-propanol, 0-7% 1-butanol, and 0-7% iso-butanol in triplicate.
(§2) Growth of JH016 was inhibited by 1-butanol at concentrations at least 2.5% (v/v), isobutanol at least 4%, 1-propanol at least 5%, isopropanol at least 5%, or ethanol at least 10%. And the growth of JH017 was inhibited by 1-butanol at concentrations at least 2% (v/v), isobutanol at least 3.5%, 1-propanol at least 5%, isopropanol at least 5%, or ethanol at least 12%. The abovementioned concentration of alcohol would for sure inhibit the growth of wild type E. coli.

[2] = test system: E. coli JH016 (potG- mutant overexpressing Hmp); assay: Growth curve of JH016 strain with various concentrations of alcohols (OD595); format: cell-based, Escherichia coli; conditions: for alcohol concentration at which growth of JH016 was inhibited: JH016, OD595
Procedure: as §1, §2

[3] = test system: E. coli JH007 (ydhF- mutant overexpressing PhoH); assay: Growth curve of JH007 strain with various concentrations of alcohols (OD595); format: cell-based, Escherichia coli; conditions: for alcohol concentration at which growth of JH007 was inhibited: JH007, IPTG-induced, LB medium, 37° C., OD595
Procedure: as §1
Referring to FIG. 7, cell growth condition of JH007 strain was monitored with OD595 with the changes of cell turbidities.

wild type E. coli = conditions: conventional fermentation process; cited from earlier work
E. coli JH007 = conditions: JH007, 2% v/v 1-butanol, 4 h, IPTG-induced vs uninduced
Procedure: These 18 strains were cultivated overnight then inoculated into LB media supplemented with 30 μg/ml of kanamycin and 50 μg/ml of chloraphenicol. IPTG were added into the media at the final concentration of 0.1 mM. […] Cells were incubated at 37° C. with shaking and the optical density was measured at the beginning and after 4 h. The survival rates were calculated using the following formula.
Survival rate=difference of OD595 between mutants with IPTG induced (4 h-0 h)/difference of OD595 between mutants without IPTG induced (4 h-0 h)×100%

[4] = test system: E. coli wild-type strain BW25113; conditions: wild type E. coli BW25113, LB medium, OD600
Procedure: E. coli wild-type strain BW25113 was cultured overnight and then inoculated into a fresh LB medium containing 0-10% (v/v) of 1-butanol. Cells were cultivated with shaking and the optical density at 600 nm was measured every 15 minutes.

Row | Compound | alcohol concentration at which growth of JH017 was inhibited [1] | alcohol concentration at which growth of JH016 was inhibited [2] | alcohol concentration at which growth of JH007 was inhibited [3] | tolerance of 1-butanol concentration (up to) ([3]; JH007) | concentration of 1-butanol at which growth was inhibited (wild type E. coli) [%] | 1-butanol tolerance (survival rate) relative to control (E. coli JH007) [fold] | concentration of 1-butanol at which growth was almost completely inhibited [4] | tolerance of ethanol concentration (up to) ([2]; JH016)
1 | CC(C)CO [isobutanol] | at least 3.5 % (v/v) | at least 4 % (v/v) | at least 3.5 % (v/v) | – | – | – | – | –
2 | 1-butanol | at least 2 % (v/v) | at least 2.5 % (v/v) | at least 5 % (v/v) | up to 5 % (v/v) | 1 | 5.5 | ≥ 1.5 % (v/v) | –
3 | CCO [ethanol] | at least 12 % (v/v) | at least 10 % (v/v) | – | – | – | – | – | up to 12 % (v/v)
4 | CCCO [1-propanol] | – | – | at least 6 % (v/v) | – | – | – | – | –
